Legend:
CK1α = molecular target: T1, CK1α (Homo sapiens, UniProt P48729+Q96SW2); test: Western blot, degradation of substrate protein in hPBMCs; format: cell-based
T1 construct: effects of the compounds of the present disclosure on the expression of target proteins in cells; endogenous in cells; host or cells: human PBMCs (Milecell Biotechnologies)

IKZF1 = molecular target: T2, IKZF1 (Homo sapiens, UniProt Q13422+Q96SW2); test: as above; format: cell-based
T2 construct: effects of the compounds of the present disclosure on the expression of target proteins in cells; endogenous in cells; host or cells: human PBMCs (Milecell Biotechnologies)

IKZF2 = molecular target: T3, IKZF2 (Homo sapiens, UniProt Q96SW2+Q9UKS7); test: as above; format: cell-based
T3 construct: effects of the compounds of the present disclosure on the expression of target proteins in cells; endogenous in cells; host or cells: human PBMCs (Milecell Biotechnologies)

IKZF3 = molecular target: T4, IKZF3 (Homo sapiens, UniProt Q96SW2+Q9UKT9); test: as above; format: cell-based
T4 construct: effects of the compounds of the present disclosure on the expression of target proteins in cells; endogenous in cells; host or cells: human PBMCs (Milecell Biotechnologies)

WEE1 = molecular target: T5, WEE1 (Homo sapiens, UniProt P30291+Q96SW2); test: as above; format: cell-based
T5 construct: effects of the compounds of the present disclosure on the expression of target proteins in cells; endogenous in cells; host or cells: human PBMCs (Milecell Biotechnologies)

GSPT1 = test: as above; format: cell-based, Human
[1] = molecular target: T6, human Cereblon WT GST-tagged protein (Homo sapiens, UniProt Q96SW2); test: CRBN-binding affinity, HTRF (CEREBLON BINDING kit); conditions: for inhibition at 0.5 µM: read-out: Inhibition Rate at 0.5 µM (%); for inhibition at 2 µM: read-out: Inhibition Rate at 2 µM (%)
T6 construct: purchased CISBIO 64BDCRBNPEH

[2] = Western blot, 24 hours of compound treatment, compounds tested at 50 nM and 500 nM (concentration for the table not stated)
[3] = 24 hours treatment, compounds at 50 nM and 500 nM (concentration behind the class not stated)

T6 sequence (Q96SW2 whole entry): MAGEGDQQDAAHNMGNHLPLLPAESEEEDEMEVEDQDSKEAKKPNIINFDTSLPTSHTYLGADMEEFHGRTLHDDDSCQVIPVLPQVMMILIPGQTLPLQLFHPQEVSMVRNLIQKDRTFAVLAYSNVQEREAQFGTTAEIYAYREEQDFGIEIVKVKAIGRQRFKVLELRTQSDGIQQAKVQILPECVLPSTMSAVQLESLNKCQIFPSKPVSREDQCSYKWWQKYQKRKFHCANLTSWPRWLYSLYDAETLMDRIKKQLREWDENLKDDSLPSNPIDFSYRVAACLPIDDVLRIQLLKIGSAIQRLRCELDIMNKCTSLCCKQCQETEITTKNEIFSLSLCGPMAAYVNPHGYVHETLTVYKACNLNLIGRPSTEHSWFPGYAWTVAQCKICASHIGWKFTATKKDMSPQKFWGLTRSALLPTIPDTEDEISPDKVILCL
T5 sequence (P30291 whole entry): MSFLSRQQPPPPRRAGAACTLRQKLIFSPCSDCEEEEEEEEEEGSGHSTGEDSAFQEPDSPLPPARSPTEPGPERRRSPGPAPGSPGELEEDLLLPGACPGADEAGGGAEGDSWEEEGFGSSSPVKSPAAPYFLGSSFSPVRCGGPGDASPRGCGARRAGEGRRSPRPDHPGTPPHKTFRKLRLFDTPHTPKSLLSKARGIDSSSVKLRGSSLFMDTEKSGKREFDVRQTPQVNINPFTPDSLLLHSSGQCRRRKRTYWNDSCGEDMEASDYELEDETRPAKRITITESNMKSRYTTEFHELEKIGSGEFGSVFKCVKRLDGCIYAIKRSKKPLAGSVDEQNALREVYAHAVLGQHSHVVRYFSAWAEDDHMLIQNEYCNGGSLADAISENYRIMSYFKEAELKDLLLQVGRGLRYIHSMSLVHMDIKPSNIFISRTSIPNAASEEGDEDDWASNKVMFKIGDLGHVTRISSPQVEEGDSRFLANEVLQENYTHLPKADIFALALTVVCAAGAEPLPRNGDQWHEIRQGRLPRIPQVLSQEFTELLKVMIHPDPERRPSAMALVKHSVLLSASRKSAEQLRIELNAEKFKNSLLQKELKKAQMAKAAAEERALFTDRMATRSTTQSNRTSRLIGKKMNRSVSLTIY
T5 sequence (Q96SW2 whole entry): as the sequence (Q96SW2 whole entry) above
T5 sequence (Q16531 whole entry partner): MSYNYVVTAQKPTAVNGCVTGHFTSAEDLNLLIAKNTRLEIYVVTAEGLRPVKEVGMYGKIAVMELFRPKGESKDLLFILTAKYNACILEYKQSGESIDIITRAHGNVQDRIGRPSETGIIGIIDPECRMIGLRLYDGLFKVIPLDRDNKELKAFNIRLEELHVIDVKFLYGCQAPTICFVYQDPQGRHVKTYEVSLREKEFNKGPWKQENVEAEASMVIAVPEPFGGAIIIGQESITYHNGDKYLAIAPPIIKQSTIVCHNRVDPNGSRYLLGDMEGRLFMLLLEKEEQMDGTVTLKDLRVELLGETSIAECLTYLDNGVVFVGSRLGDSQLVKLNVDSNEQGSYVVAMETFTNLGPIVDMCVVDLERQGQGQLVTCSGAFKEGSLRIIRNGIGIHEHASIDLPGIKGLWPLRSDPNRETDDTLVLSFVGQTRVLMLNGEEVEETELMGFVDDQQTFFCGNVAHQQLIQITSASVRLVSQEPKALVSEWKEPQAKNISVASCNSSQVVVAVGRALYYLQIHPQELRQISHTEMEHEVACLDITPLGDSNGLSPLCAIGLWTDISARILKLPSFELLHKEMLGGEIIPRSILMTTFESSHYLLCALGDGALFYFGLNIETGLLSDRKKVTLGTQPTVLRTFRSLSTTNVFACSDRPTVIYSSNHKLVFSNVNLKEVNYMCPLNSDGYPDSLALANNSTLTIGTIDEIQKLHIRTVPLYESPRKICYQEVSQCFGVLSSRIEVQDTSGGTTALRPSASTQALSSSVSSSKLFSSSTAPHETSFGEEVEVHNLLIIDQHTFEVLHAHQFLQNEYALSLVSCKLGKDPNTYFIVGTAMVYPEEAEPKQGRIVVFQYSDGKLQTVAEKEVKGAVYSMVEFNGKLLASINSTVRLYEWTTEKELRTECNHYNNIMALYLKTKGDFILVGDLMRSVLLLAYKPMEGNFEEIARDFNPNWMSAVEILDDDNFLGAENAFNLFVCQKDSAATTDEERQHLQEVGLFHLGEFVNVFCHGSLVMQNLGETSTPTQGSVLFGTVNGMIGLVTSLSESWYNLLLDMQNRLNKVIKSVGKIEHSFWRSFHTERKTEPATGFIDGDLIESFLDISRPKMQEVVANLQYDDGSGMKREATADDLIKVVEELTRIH
T2 sequence (Q13422 whole entry): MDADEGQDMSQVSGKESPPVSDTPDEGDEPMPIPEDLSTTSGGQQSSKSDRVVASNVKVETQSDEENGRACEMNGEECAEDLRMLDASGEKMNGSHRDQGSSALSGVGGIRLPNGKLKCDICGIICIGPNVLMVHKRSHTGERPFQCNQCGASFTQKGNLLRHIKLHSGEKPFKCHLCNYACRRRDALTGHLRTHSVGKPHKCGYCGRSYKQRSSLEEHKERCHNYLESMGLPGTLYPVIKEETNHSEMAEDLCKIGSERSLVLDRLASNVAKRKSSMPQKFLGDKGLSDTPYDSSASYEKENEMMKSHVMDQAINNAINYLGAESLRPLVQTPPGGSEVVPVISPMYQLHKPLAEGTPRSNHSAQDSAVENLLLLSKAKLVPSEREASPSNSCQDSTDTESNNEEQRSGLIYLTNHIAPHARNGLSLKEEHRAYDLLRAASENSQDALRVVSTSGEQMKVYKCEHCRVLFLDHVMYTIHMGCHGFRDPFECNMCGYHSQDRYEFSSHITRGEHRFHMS
T2 sequence (Q96SW2 whole entry): as the sequence (Q96SW2 whole entry) above
T2 sequence (Q16531 whole entry partner): as the sequence (Q16531 whole entry partner) above
T4 sequence (Q9UKT9 whole entry): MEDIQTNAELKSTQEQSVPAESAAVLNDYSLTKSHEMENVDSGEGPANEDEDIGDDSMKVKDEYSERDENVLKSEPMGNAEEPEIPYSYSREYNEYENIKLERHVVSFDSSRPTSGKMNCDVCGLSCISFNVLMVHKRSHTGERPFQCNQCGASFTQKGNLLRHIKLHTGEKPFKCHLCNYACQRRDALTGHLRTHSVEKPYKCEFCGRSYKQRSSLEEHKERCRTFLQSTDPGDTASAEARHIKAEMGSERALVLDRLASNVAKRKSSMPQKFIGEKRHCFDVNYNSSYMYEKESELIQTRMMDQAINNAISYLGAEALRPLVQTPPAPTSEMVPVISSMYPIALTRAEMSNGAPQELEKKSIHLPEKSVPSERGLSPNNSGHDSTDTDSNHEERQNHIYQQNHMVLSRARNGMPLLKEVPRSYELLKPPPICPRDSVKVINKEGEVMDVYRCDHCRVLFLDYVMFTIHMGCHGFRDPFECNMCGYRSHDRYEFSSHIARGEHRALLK
T4 sequence (Q96SW2 whole entry): as the sequence (Q96SW2 whole entry) above
T4 sequence (Q16531 whole entry partner): as the sequence (Q16531 whole entry partner) above
T3 sequence (Q9UKS7 whole entry): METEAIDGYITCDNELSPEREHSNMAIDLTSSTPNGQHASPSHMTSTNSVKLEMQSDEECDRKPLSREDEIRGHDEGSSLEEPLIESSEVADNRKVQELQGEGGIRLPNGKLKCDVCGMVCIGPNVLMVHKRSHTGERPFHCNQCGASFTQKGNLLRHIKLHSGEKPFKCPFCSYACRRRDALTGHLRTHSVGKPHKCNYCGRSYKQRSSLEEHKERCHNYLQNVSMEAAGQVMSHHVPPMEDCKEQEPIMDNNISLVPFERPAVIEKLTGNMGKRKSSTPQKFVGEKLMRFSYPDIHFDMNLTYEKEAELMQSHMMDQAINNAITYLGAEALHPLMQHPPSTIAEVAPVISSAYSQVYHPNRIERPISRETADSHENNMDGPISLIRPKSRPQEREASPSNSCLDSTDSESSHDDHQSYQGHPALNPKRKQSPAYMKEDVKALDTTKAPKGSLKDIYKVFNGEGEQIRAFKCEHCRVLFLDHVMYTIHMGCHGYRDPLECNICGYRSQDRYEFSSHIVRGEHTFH
T3 sequence (Q96SW2 whole entry): as the sequence (Q96SW2 whole entry) above
T3 sequence (Q16531 whole entry partner): as the sequence (Q16531 whole entry partner) above
T1 sequence (P48729 whole entry): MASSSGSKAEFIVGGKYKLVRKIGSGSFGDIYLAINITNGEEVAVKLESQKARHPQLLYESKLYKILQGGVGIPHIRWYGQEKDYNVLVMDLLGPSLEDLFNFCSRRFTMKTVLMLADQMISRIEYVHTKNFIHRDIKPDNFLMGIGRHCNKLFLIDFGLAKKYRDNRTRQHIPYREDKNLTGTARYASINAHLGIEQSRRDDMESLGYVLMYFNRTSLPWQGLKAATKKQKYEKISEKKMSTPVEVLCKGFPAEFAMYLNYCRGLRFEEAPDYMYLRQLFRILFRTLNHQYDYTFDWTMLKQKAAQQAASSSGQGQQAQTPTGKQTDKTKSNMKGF
T1 sequence (Q96SW2 whole entry): as the sequence (Q96SW2 whole entry) above
T1 sequence (Q16531 whole entry partner): as the sequence (Q16531 whole entry partner) above

inhibition at 0.5 µM [1] [%]	inhibition at 2 µM [1] [%]	SMILES	CK1α substrate protein remaining % (CK1α; [2])	IKZF 1 substrate protein remaining % (IKZF1; [2])	IKZF2 substrate protein remaining % (IKZF2; [2])	IKZF3 substrate protein remaining % (IKZF3; [2])	Wee1 substrate protein remaining % (WEE1; [2])	GSPT1 substrate protein remaining % (GSPT1; [2])	CK1α substrate protein remaining % (CK1α; [3])	IKZF 1 substrate protein remaining % (IKZF1; [3])	IKZF2 substrate protein remaining % (IKZF2; [3])	IKZF3 substrate protein remaining % (IKZF3; [3])	Wee1 substrate protein remaining % (WEE1; [3])	GSPT1 substrate protein remaining % (GSPT1; [3])
60 to 80	80 to 100	O=C1CCC(N2Cc3cc(CN4CCN(c5ccncc5)CC4)ccc3C2=S)C(=O)N1 (stereo not drawn) [GT-09233, 3-(5-((4-(pyridin-4-yl)piperazin-1-yl)methyl)-1-thioxoisoindolin-2-yl)piperidine-2,6-dione]	A (0% ≤ substrate protein remaining % ≤ 80%)	A (0% ≤ substrate protein remaining % ≤ 80%)	A (0% ≤ substrate protein remaining % ≤ 80%)	A (0% ≤ substrate protein remaining % ≤ 80%)	A (0% ≤ substrate protein remaining % ≤ 80%)	A (0% ≤ substrate protein remaining % ≤ 80%)						
60 to 80	80 to 100	Cc1cc(N2CCN(Cc3ccc4c(c3)CN(C3CCC(=O)NC3=O)C4=S)CC2)ccn1 (stereo not drawn) [GT-09234, 3-(5-((4-(2-methylpyridin-4-yl)piperazin-1-yl)methyl)-1-thioxoisoindolin-2-yl)piperidine-2,6-dione]	A (0% ≤ substrate protein remaining % ≤ 80%)	A (0% ≤ substrate protein remaining % ≤ 80%)	A (0% ≤ substrate protein remaining % ≤ 80%)	A (0% ≤ substrate protein remaining % ≤ 80%)	A (0% ≤ substrate protein remaining % ≤ 80%)	A (0% ≤ substrate protein remaining % ≤ 80%)						
60 to 80	80 to 100	O=C1CCC(N2Cc3cc(CN4CCN(c5nccc(F)c5F)CC4)ccc3C2=S)C(=O)N1 (stereo not drawn) [GT-09235, 3-(5-((4-(3,4-difluoropyridin-2-yl)piperazin-1-yl)methyl)-1-thioxoisoindolin-2-yl)piperidine-2,6-dione]	A (0% ≤ substrate protein remaining % ≤ 80%)	B (80%< substrate protein remaining %≤ 100%)	A (0% ≤ substrate protein remaining % ≤ 80%)	A (0% ≤ substrate protein remaining % ≤ 80%)	B (80%< substrate protein remaining %≤ 100%)	A (0% ≤ substrate protein remaining % ≤ 80%)						
60 to 80	80 to 100	O=C1CCC(N2Cc3cc(CN4CCN(c5ccncc5Cl)CC4)ccc3C2=S)C(=O)N1 (stereo not drawn) [GT-09238, 3-(5-((4-(3-chloropyridin-4-yl)piperazin-1-yl)methyl)-1-thioxoisoindolin-2-yl)piperidine-2,6-dione]	A (0% ≤ substrate protein remaining % ≤ 80%)	B (80%< substrate protein remaining %≤ 100%)	A (0% ≤ substrate protein remaining % ≤ 80%)	A (0% ≤ substrate protein remaining % ≤ 80%)	B (80%< substrate protein remaining %≤ 100%)	A (0% ≤ substrate protein remaining % ≤ 80%)						
60 to 80	80 to 100	O=C1CCC(N2Cc3cc(CN4CCN(c5ccnc(Br)c5F)CC4)ccc3C2=S)C(=O)N1 (stereo not drawn) [GT-09241, 3-(5-((4-(2-bromo-3-fluoropyridin-4-yl)piperazin-1-yl)methyl)-1-thioxoisoindolin-2-yl)piperidine-2,6-dione]							B (80%< substrate protein remaining %≤ 100%)	B (80%< substrate protein remaining %≤ 100%)	B (80%< substrate protein remaining %≤ 100%)	B (80%< substrate protein remaining %≤ 100%)	B (80%< substrate protein remaining %≤ 100%)	A (0% ≤ substrate protein remaining % ≤ 80%)
60 to 80	80 to 100	O=C1CCC(N2Cc3cc(CN4CCN(c5nccc(Cl)c5F)CC4)ccc3C2=S)C(=O)N1 (stereo not drawn) [GT-09244, 3-(5-((4-(4-chloro-3-fluoropyridin-2-yl)piperazin-1-yl)methyl)-1-thioxoisoindolin-2-yl)piperidine-2,6-dione]							B (80%< substrate protein remaining %≤ 100%)	B (80%< substrate protein remaining %≤ 100%)	B (80%< substrate protein remaining %≤ 100%)	B (80%< substrate protein remaining %≤ 100%)	B (80%< substrate protein remaining %≤ 100%)	A (0% ≤ substrate protein remaining % ≤ 80%)
60 to 80	80 to 100	O=C1CCC(N2Cc3cc(CN4CCN(c5ncccn5)CC4)ccc3C2=S)C(=O)N1 (stereo not drawn) [GT-09252, 3-(5-((4-(pyrimidin-2-yl)piperazin-1-yl)methyl)-1-thioxoisoindolin-2-yl)piperidine-2,6-dione]							B (80%< substrate protein remaining %≤ 100%)	B (80%< substrate protein remaining %≤ 100%)	A (0% ≤ substrate protein remaining % ≤ 80%)	B (80%< substrate protein remaining %≤ 100%)	B (80%< substrate protein remaining %≤ 100%)	B (80%< substrate protein remaining %≤ 100%)
53 to 60	80 to 100	O=C1CCC(N2Cc3cc(CN4CCN(c5nsc6cc(F)ccc56)CC4)ccc3C2=S)C(=O)N1 (stereo not drawn) [GT-09259, 3-(5-((4-(6-fluorobenzo[d]isothiazol-3-yl)piperazin-1-yl)methyl)-1-thioxoisoindolin-2-yl)piperidine-2,6-dione]							B (80%< substrate protein remaining %≤ 100%)	B (80%< substrate protein remaining %≤ 100%)	B (80%< substrate protein remaining %≤ 100%)	B (80%< substrate protein remaining %≤ 100%)	B (80%< substrate protein remaining %≤ 100%)	A (0% ≤ substrate protein remaining % ≤ 80%)
60 to 80	80 to 100	O=C1CCC(N2Cc3cc(CN4CCC(c5noc6ccccc56)CC4)ccc3C2=S)C(=O)N1 (stereo not drawn) [GT-09266, 3-(5-((4-(benzo[d]isoxazol-3-yl)piperidin-1-yl)methyl)-1-thioxoisoindolin-2-yl)piperidine-2,6-dione]							B (80%< substrate protein remaining %≤ 100%)	B (80%< substrate protein remaining %≤ 100%)	B (80%< substrate protein remaining %≤ 100%)	B (80%< substrate protein remaining %≤ 100%)	B (80%< substrate protein remaining %≤ 100%)	A (0% ≤ substrate protein remaining % ≤ 80%)

SMILES	inhibition at 0.5 µM [1] [%]	inhibition at 2 µM [1] [%]	CK1α substrate protein remaining % (CK1α; [2])	IKZF 1 substrate protein remaining % (IKZF1; [2])	IKZF2 substrate protein remaining % (IKZF2; [2])	IKZF3 substrate protein remaining % (IKZF3; [2])	Wee1 substrate protein remaining % (WEE1; [2])	GSPT1 substrate protein remaining % (GSPT1; [2])	CK1α substrate protein remaining % (CK1α; [3])	IKZF 1 substrate protein remaining % (IKZF1; [3])	IKZF2 substrate protein remaining % (IKZF2; [3])	IKZF3 substrate protein remaining % (IKZF3; [3])	Wee1 substrate protein remaining % (WEE1; [3])	GSPT1 substrate protein remaining % (GSPT1; [3])
O=C1CCC(N2Cc3cc(CN4CCC(n5cnc6cc(F)ccc65)CC4)ccc3C2=S)C(=O)N1 (stereo not drawn) [GT-09262, 3-(5-((4-(5-fluoro-1H-benzo[d]imidazol-1-yl)piperidin-1-yl)methyl)-1-thioxoisoindolin-2-yl)piperidine-2,6-dione]	53 to 60	80 to 100							B (80%< substrate protein remaining %≤ 100%)	B (80%< substrate protein remaining %≤ 100%)	B (80%< substrate protein remaining %≤ 100%)	B (80%< substrate protein remaining %≤ 100%)	B (80%< substrate protein remaining %≤ 100%)	A (0% ≤ substrate protein remaining % ≤ 80%)
O=C1CCC(N2Cc3cc(CN4CCC(n5c(=O)[nH]c6cc(F)ccc65)CC4)ccc3C2=S)C(=O)N1 (stereo not drawn) [GT-09263, 3-(5-((4-(5-fluoro-2-oxo-2,3-dihydro-1H-benzo[d]imidazol-1-yl)piperidin-1-yl)methyl)-1-thioxoisoindolin-2-yl)piperidine-2,6-dione]	60 to 80	80 to 100							B (80%< substrate protein remaining %≤ 100%)	B (80%< substrate protein remaining %≤ 100%)	B (80%< substrate protein remaining %≤ 100%)	B (80%< substrate protein remaining %≤ 100%)	B (80%< substrate protein remaining %≤ 100%)	A (0% ≤ substrate protein remaining % ≤ 80%)
O=C1CCC(N2Cc3cc(CN4CCC(c5cccc6c(F)cccc56)CC4)ccc3C2=S)C(=O)N1 (stereo not drawn) [GT-09275, 3-(5-((4-(5-fluoronaphthalen-1-yl)piperidin-1-yl)methyl)-1-thioxoisoindolin-2-yl)piperidine-2,6-dione]	30 to 40	60 to 80							B (80%< substrate protein remaining %≤ 100%)	B (80%< substrate protein remaining %≤ 100%)	B (80%< substrate protein remaining %≤ 100%)	B (80%< substrate protein remaining %≤ 100%)	B (80%< substrate protein remaining %≤ 100%)	A (0% ≤ substrate protein remaining % ≤ 80%)

Reference: patent EP4745135A1 (Gluetacs Therapeutics (Shanghai) Co., Ltd., priority 2023, dated 2025)
